# Results: ChEMBL document CHEMBL1129644, “Nucleosides with a twist. Can fixed forms of sugar ring pucker influence biological activity in nucleosides and oligonucleotides?” (J Med Chem, 1996)
# Legend:
# [1] = Compound was tested for cytotoxicity against HSV-2 (herpes simplex type 2) of HFF (human foreskin fibroblasts) cells by cytopathogenic effect (CPE) inhibition assay; type: cell-based; conditions: HFF (human foreskin fibroblast) cells
# [2] = Compound was tested for cytotoxicity against HSV-1 (herpes simplex type-1) of HFF (human foreskin fibroblasts) cells by cytopathogenic effect (CPE) inhibition assay; type: cell-based; conditions: HFF (human foreskin fibroblast) cells
# [3] = Compound was tested for cytotoxicity against HCMV (human cytomegalovirus) of HFF(human foreskin fibroblasts) cells by cytopathogenic effect (CPE) inhibition assay; type: cell-based; conditions: HFF (human foreskin fibroblast) cells
# [4] = Compound was tested for cytotoxicity against HSV-1 (herpes simplex type-1) of HFF (human foreskin fibroblasts) cells; type: cell-based; conditions: HFF (human foreskin fibroblast) cells
# [5] = (§1) Compound was tested for cytotoxicity against HSV-2 (herpes simplex type-2) of HFF (human foreskin fibroblasts) cells in different experiment; type: cell-based; conditions: HFF (human foreskin fibroblast) cells
# [6] = Compound was tested for cytotoxicity against HSV-1 (herpes simplex type-1) of HFF (human foreskin fibroblasts) cells in different experiment; type: cell-based; conditions: HFF (human foreskin fibroblast) cells
# [7] = (§2) Compound was tested for cytotoxicity against HSV-2 (herpes simplex type-2) of HFF (human foreskin fibroblasts) cells; type: cell-based; conditions: HFF (human foreskin fibroblast) cells
# [8] = as §1; conditions: human alphaherpesvirus 2, HFF (human foreskin fibroblast) cells
# [9] = as §2; conditions: human alphaherpesvirus 2, HFF (human foreskin fibroblast) cells
Compound,CC50 [1] [µg/mL],CC50 [2] [µg/mL],CC50 [3] [µg/mL],CC50 [4] [µg/mL],CC50 [5] [µg/mL],CC50 [6] [µg/mL],CC50 [7] [µg/mL],CC50 [8] [µg/mL],CC50 [9] [µg/mL]
Nc1ccn([C@H]2C[C@H](O)[C@@]3(O)CC23)c(=O)n1 (stereo not given in full),96,68,8.8,,,,,,
Cc1cn(C2C[C@H](O)[C@@H](O)C2)c(=O)[nH]c1=O,,,,> 10,> 10,,,,
Nc1nc(O)c2ncn([C@H]3C[C@H](O)[C@@]4(O)CC34)c2n1 (stereo not given in full),> 100,> 100,64.3,,,,,,
O=c1ccn([C@H]2C[C@H](O)[C@@]3(O)CC23)c(=O)[nH]1 (stereo not given in full),> 100,> 100,> 100,,,,,,
Cc1cn([C@H]2C[C@H](O)[C@@]3(O)CC23)c(=O)[nH]c1=O (stereo not given in full),> 100,> 100,63.7,> 20,> 20,> 20,> 20,,
Nc1ncnc2c1ncn2[C@H]1C[C@H](O)[C@@]2(O)CC12 (stereo not given in full),> 100,> 100,> 100,,,,,,
Cc1cn([C@@]23CC2[C@H](O)[C@@H](O)C3)c(=O)[nH]c1=O (stereo not given in full),,,,> 50,,> 20,,> 20,> 50
